According to patent publication US20240116845A1, “INDENE COMPOUNDS, PHARMACEUTICAL COMPOSITIONS THEREOF, AND THEIR THERAPEUTIC APPLICATIONS” (NucMito Pharmaceuticals Co., Ltd., priority 2021, published 2024):

How the values were obtained:
Format in all cases: cell-based
[1] = tested on: alpha-smooth muscle actin (α-SMA); assay: Inhibition of TGF-β induced expression of alpha-smooth muscle actin in CFSC cells (western blot); details: compound at 10 μM, TGF-β (10 ng/mL), 24 hours
Procedure, shortened: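 Rat CCl4-treated hepatic stellate (CFSC) cells in serum-free DMEM were given compound at 10 μM plus TGF-β 10 ng/mL for 24 h at 37 °C. α-SMA measured by western blot with β-actin, bands quantified densitometrically. Percent inhibition is the decrease in band intensity versus TGF-β alone.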

[2] = tested on: A431 (epidermoid carcinoma); assay: Antiproliferative activity, CCK-8 cell viability; details: Homo sapiens, A-431, 72 h, read-out: Inhibition of Cancerous Cells, A431; for inhibition at 3.3 µM: compound concentration of 3.3 μM; for inhibition at 10 µM: compound concentration of 10 μM; for inhibition at 30 µM: compound concentration of 30 μM
Procedure, shortened: (§1)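 Cells in DMEM with 10% FBS were treated with compound at 3.3, 10 or 30 μM for 72 h at 37°C. Viability was read by CCK-8 absorbance at 450 nm and expressed relative to DMSO-treated cells. Growth inhibition was binned as ≥50%, 30–50% or <30%.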

[3] = tested on: A549 (lung adenocarcinoma); assay: Antiproliferative activity, CCK-8 cell viability; details: Homo sapiens, 72 h, read-out: Inhibition of Cancerous Cells, A549; for inhibition at 3.3 µM: compound concentration of 3.3 μM; for inhibition at 10 µM: compound concentration of 10 μM; for inhibition at 30 µM: compound concentration of 30 μM
[4] = tested on: B16F10 (malignant melanoma); assay: Antiproliferative activity, CCK-8 cell viability; details: Mus musculus, B16-F10, 72 h, read-out: Inhibition of Cancerous Cells, B16F10; for inhibition at 3.3 µM: compound concentration of 3.3 μM; for inhibition at 10 µM: compound concentration of 10 μM; for inhibition at 30 µM: compound concentration of 30 μM
Procedure, shortened: as §1

[5] = tested on: HeLa (cervical cancer); assay: Antiproliferative activity, CCK-8 cell viability; details: Homo sapiens, 72 h, read-out: Inhibition of Cancerous Cells, HELA; for inhibition at 3.3 µM: compound concentration of 3.3 μM; for inhibition at 10 µM: compound concentration of 10 μM; for inhibition at 30 µM: compound concentration of 30 μM
[6] = tested on: HepG2 (liver cancer); assay: Antiproliferative activity, CCK-8 cell viability; details: Homo sapiens, 72 h, read-out: Inhibition of Cancerous Cells, HepG2; for inhibition at 3.3 µM: compound concentration of 3.3 μM; for inhibition at 10 µM: compound concentration of 10 μM; for inhibition at 30 µM: compound concentration of 30 μM
Procedure, shortened: as §1

[7] = tested on: MDA-MB-231 (breast cancer); assay: Antiproliferative activity, CCK-8 cell viability; details: Homo sapiens, 72 h, read-out: Inhibition of Cancerous Cells, MDA-MB-231; for inhibition at 3.3 µM: compound concentration of 3.3 μM; for inhibition at 10 µM: compound concentration of 10 μM; for inhibition at 30 µM: compound concentration of 30 μM
Procedure, shortened: as §1

[8] = tested on: SW480 (colon cancer); assay: Antiproliferative activity, CCK-8 cell viability; details: Homo sapiens, 72 h, read-out: Inhibition of Cancerous Cells, SW480; for inhibition at 3.3 µM: compound concentration of 3.3 μM; for inhibition at 10 µM: compound concentration of 10 μM; for inhibition at 30 µM: compound concentration of 30 μM
Procedure, shortened: as §1

CC1=C(CC(=O)O)c2cc(F)cc(F)c2/C1=C\c1cccc(Oc2ccccc2)c1 [Compound D20, 2-[(1Z)-5,7-Difluoro-1-(3-(phenoxy)benzylidene)-2-methyl-1H-inden-3-yl]-acetic acid]
inhibition at 10 µM [1]: ≥ 80%
inhibition at 3.3 µM [2]: < 30%
inhibition at 10 µM [2]: < 30%
inhibition at 30 µM [2]: ≥ 50%
inhibition at 3.3 µM [3]: 30 to 50%
inhibition at 10 µM [3]: ≥ 50%
inhibition at 30 µM [3]: ≥ 50%
inhibition at 3.3 µM [4]: 30 to 50%
inhibition at 10 µM [4]: ≥ 50%
inhibition at 30 µM [4]: ≥ 50%
inhibition at 3.3 µM [5]: < 30%
inhibition at 10 µM [5]: < 30%
inhibition at 30 µM [5]: ≥ 50%
inhibition at 3.3 µM [6]: ≥ 50%
inhibition at 10 µM [6]: ≥ 50%
inhibition at 30 µM [6]: ≥ 50%
inhibition at 3.3 µM [7]: 30 to 50%
inhibition at 10 µM [7]: ≥ 50%
inhibition at 30 µM [7]: ≥ 50%
inhibition at 3.3 µM [8]: ≥ 50%
inhibition at 10 µM [8]: ≥ 50%
inhibition at 30 µM [8]: ≥ 50%

CC1=C(CC(=O)O)c2cc(F)ccc2/C1=C\c1cccc(COc2ccc(C(C)(C)C)cc2)c1 [Compound A22, 2-[(1Z)-1-({3-[(4-Tert-butylphenoxy)methyl]phenyl}methylidene)-5-fluoro-2-methyl-1H-inden-3-yl]acetic acid]
inhibition at 10 µM [1]: ≥ 80%
inhibition at 3.3 µM [2]: ≥ 50%
inhibition at 10 µM [2]: ≥ 50%
inhibition at 30 µM [2]: ≥ 50%
inhibition at 3.3 µM [3]: < 30%
inhibition at 10 µM [3]: 30 to 50%
inhibition at 30 µM [3]: ≥ 50%
inhibition at 3.3 µM [4]: ≥ 50%
inhibition at 10 µM [4]: ≥ 50%
inhibition at 30 µM [4]: ≥ 50%
inhibition at 3.3 µM [5]: < 30%
inhibition at 10 µM [5]: < 30%
inhibition at 30 µM [5]: ≥ 50%
inhibition at 3.3 µM [6]: 30 to 50%
inhibition at 10 µM [6]: ≥ 50%
inhibition at 30 µM [6]: ≥ 50%
inhibition at 3.3 µM [7]: ≥ 50%
inhibition at 10 µM [7]: ≥ 50%
inhibition at 30 µM [7]: ≥ 50%
inhibition at 3.3 µM [8]: 30 to 50%
inhibition at 10 µM [8]: ≥ 50%
inhibition at 30 µM [8]: ≥ 50%

CC1=C(CC(=O)O)c2cc(F)ccc2/C1=C\c1ccc(CN(Cc2ccccc2)c2ccccc2)cc1 [Compound A10, 2-[(1Z)-1-[(4-{[Benzyl(phenyl)amino]methyl}phenyl)methylidene]-5-fluoro-2-methyl-1H-inden-3-yl]acetic acid]
inhibition at 10 µM [1]: ≥ 80%
inhibition at 3.3 µM [2]: ≥ 50%
inhibition at 10 µM [2]: ≥ 50%
inhibition at 30 µM [2]: ≥ 50%
inhibition at 3.3 µM [3]: 30 to 50%
inhibition at 10 µM [3]: ≥ 50%
inhibition at 30 µM [3]: ≥ 50%
inhibition at 3.3 µM [4]: < 30%
inhibition at 10 µM [4]: ≥ 50%
inhibition at 30 µM [4]: ≥ 50%
inhibition at 3.3 µM [5]: ≥ 50%
inhibition at 10 µM [5]: ≥ 50%
inhibition at 30 µM [5]: ≥ 50%
inhibition at 3.3 µM [6]: ≥ 50%
inhibition at 10 µM [6]: ≥ 50%
inhibition at 30 µM [6]: ≥ 50%
inhibition at 3.3 µM [7]: ≥ 50%
inhibition at 10 µM [7]: ≥ 50%
inhibition at 30 µM [7]: ≥ 50%
inhibition at 3.3 µM [8]: ≥ 50%
inhibition at 10 µM [8]: ≥ 50%
inhibition at 30 µM [8]: ≥ 50%

CC1=C(CC(=O)O)c2cc(F)ccc2/C1=C\c1cccc(COc2ccc(C(F)(F)F)cc2)c1 [Compound A21, 2-[(1Z)-5-Fluoro-2-methyl-1-[(3-{[4-(trifluoromethyl)phenoxy]methyl}phenyl)-methylidene]-1H-inden-3-yl]acetic acid]
inhibition at 10 µM [1]: < 30%
inhibition at 3.3 µM [2]: 30 to 50%
inhibition at 10 µM [2]: ≥ 50%
inhibition at 30 µM [2]: ≥ 50%
inhibition at 3.3 µM [3]: 30 to 50%
inhibition at 10 µM [3]: 30 to 50%
inhibition at 30 µM [3]: ≥ 50%
inhibition at 3.3 µM [4]: ≥ 50%
inhibition at 10 µM [4]: ≥ 50%
inhibition at 30 µM [4]: ≥ 50%
inhibition at 3.3 µM [5]: 30 to 50%
inhibition at 10 µM [5]: 30 to 50%
inhibition at 30 µM [5]: ≥ 50%
inhibition at 3.3 µM [6]: 30 to 50%
inhibition at 10 µM [6]: 30 to 50%
inhibition at 30 µM [6]: ≥ 50%
inhibition at 3.3 µM [7]: ≥ 50%
inhibition at 10 µM [7]: ≥ 50%
inhibition at 30 µM [7]: ≥ 50%
inhibition at 3.3 µM [8]: ≥ 50%
inhibition at 10 µM [8]: ≥ 50%
inhibition at 30 µM [8]: ≥ 50%

CC1=C(CC(=O)NO)c2cc(F)ccc2/C1=C\c1ccc(C(C)(C)C)cc1 [Compound D42, (Z)-2-(1-(4-(Tert-butyl)benzylidene)-5-fluoro-2-methyl-1H-inden-3-yl)-N-hydroxyacetamide]
inhibition at 10 µM [1]: 50 to 80%
inhibition at 3.3 µM [2]: ≥ 50%
inhibition at 10 µM [2]: ≥ 50%
inhibition at 30 µM [2]: ≥ 50%
inhibition at 3.3 µM [3]: ≥ 50%
inhibition at 10 µM [3]: ≥ 50%
inhibition at 30 µM [3]: ≥ 50%
inhibition at 3.3 µM [4]: ≥ 50%
inhibition at 10 µM [4]: ≥ 50%
inhibition at 30 µM [4]: ≥ 50%
inhibition at 3.3 µM [5]: 30 to 50%
inhibition at 10 µM [5]: ≥ 50%
inhibition at 30 µM [5]: ≥ 50%
inhibition at 3.3 µM [6]: < 30%
inhibition at 10 µM [6]: 30 to 50%
inhibition at 30 µM [6]: ≥ 50%
inhibition at 3.3 µM [7]: ≥ 50%
inhibition at 10 µM [7]: ≥ 50%
inhibition at 30 µM [7]: ≥ 50%
inhibition at 3.3 µM [8]: ≥ 50%
inhibition at 10 µM [8]: ≥ 50%
inhibition at 30 µM [8]: ≥ 50%

CC1=C(CC(=O)N(C)O)c2cc(F)ccc2/C1=C\c1cccc(Oc2ccccc2)c1 [Compound B5, (Z)-2-(5-Fluoro-2-methyl-1-(3-phenoxybenzylidene)-1H-inden-3-yl)-N-hydroxy-N-methylacetamide]
inhibition at 10 µM [1]: 50 to 80%
inhibition at 3.3 µM [2]: ≥ 50%
inhibition at 10 µM [2]: ≥ 50%
inhibition at 30 µM [2]: ≥ 50%
inhibition at 3.3 µM [3]: 30 to 50%
inhibition at 10 µM [3]: ≥ 50%
inhibition at 30 µM [3]: ≥ 50%
inhibition at 3.3 µM [4]: 30 to 50%
inhibition at 10 µM [4]: ≥ 50%
inhibition at 30 µM [4]: ≥ 50%
inhibition at 3.3 µM [5]: < 30%
inhibition at 10 µM [5]: ≥ 50%
inhibition at 30 µM [5]: ≥ 50%
inhibition at 3.3 µM [6]: ≥ 50%
inhibition at 10 µM [6]: ≥ 50%
inhibition at 30 µM [6]: ≥ 50%
inhibition at 3.3 µM [7]: < 30%
inhibition at 10 µM [7]: ≥ 50%
inhibition at 30 µM [7]: ≥ 50%
inhibition at 3.3 µM [8]: 30 to 50%
inhibition at 10 µM [8]: ≥ 50%
inhibition at 30 µM [8]: ≥ 50%

O=C(O)CC1=C(Cc2ccccc2)/C(=C/c2ccc(Oc3ccc(F)cc3)cc2)c2ccc(F)cc21 [Compound D9, 2-[(1Z)-5-Fluoro-2-benzyl-1-({4-[4-fluorophenoxy]phenyl}methylidene)-1H-inden-3-yl]acetic acid]
inhibition at 10 µM [1]: ≥ 80%
inhibition at 3.3 µM [2]: 30 to 50%
inhibition at 10 µM [2]: ≥ 50%
inhibition at 30 µM [2]: ≥ 50%
inhibition at 3.3 µM [3]: 30 to 50%
inhibition at 10 µM [3]: ≥ 50%
inhibition at 30 µM [3]: ≥ 50%
inhibition at 3.3 µM [4]: < 30%
inhibition at 10 µM [4]: ≥ 50%
inhibition at 30 µM [4]: ≥ 50%
inhibition at 3.3 µM [5]: 30 to 50%
inhibition at 10 µM [5]: 30 to 50%
inhibition at 30 µM [5]: ≥ 50%
inhibition at 3.3 µM [6]: < 30%
inhibition at 10 µM [6]: < 30%
inhibition at 30 µM [6]: ≥ 50%
inhibition at 3.3 µM [7]: ≥ 50%
inhibition at 10 µM [7]: ≥ 50%
inhibition at 30 µM [7]: ≥ 50%
inhibition at 3.3 µM [8]: 30 to 50%
inhibition at 10 µM [8]: ≥ 50%
inhibition at 30 µM [8]: ≥ 50%
